# Reference: patent US9387257B2, “Lung cancer specific peptides for targeted drug delivery and molecular imaging” (Academia Sinica, priority 2014, dated 2016)
# Where no end group is shown, it is not given here.
# Columns and labels:
# [1] = Pharmacokinetic and biodistribution study in mice bearing H460 xenografts; format: in vivo, SCID mice; settings: single i.v. dose 2 mg/kg
# Method: SCID mice bearing H460 lung cancer xenografts (˜300 mm^3) were injected in the tail vein with either free drug doxorubicin (FD), liposomal doxorubicin (LD), or targeting (HSP1, HSP2 or HSP4) LD at a single dose of 2 mg/kg. At 1 hr and 24 hr post-injection, blood samples were collected through submaxillary punctures before mice were anaesthetized and sacrificed (three mice in each group). Then the mice were perfused with 50 ml PBS through heart, xenograft tumors and organs (brain, lung, heart, liver, and kidney) were dissected, weighted, and homogenized to calculate amount of doxorubicin in tissues. Total doxorubicin was quantified by measuring fluorescence at λEx/Em=485/590 nm using a spectrofluorometer (SPECTRAMAX® M5, Molecular Devices).
# [2] = test system: human lung cancer cell lines (H460, H661, H1993, H441, CL1-5, A549, H520, H1688); experiment: Flow cytometry surface binding of FITC-conjugated peptides to lung cancer cell lines; format: cell-based; settings: 20 μg/mL FITC-conjugated peptide, 4° C., 1 hour; large cell, adeno-, squamous cell and small cell carcinoma lines
# Method: (§1) The lung cancer cell lines or control cells were collected using enzyme-free cell dissociation buffer, and then were incubated with 20 μg/mL FITC-conjugated HSP1, 2, 4 or control peptide at 4° C. for 1 hour. After washing, cells were analyzed by flow cytometer.
# [3] = test system: human normal bronchial epithelial cell (NL20); experiment: Flow cytometry surface binding of FITC-conjugated peptides to normal cells; format: cell-based; settings: 20 μg/mL FITC-conjugated peptide, 4° C., 1 hour
# Method: as §1
# [4] = test system: H1993 adenocarcinoma cells; experiment: Immunofluorescence staining (IFA) of FITC-labeled peptides; format: cell-based, human; settings: 10 μg/mL FITC-labeled peptide, fixed H1993 cells
# Method: (§2) H460 and H1993 cells were seeded and grown to about 50% confluence on cover slips. After the cells had been fixed with 2% paraformaldehyde, they were incubated with 10 μg/mL FITC-labeled HSP1, 2, 4 or control peptides. Then the slides were counterstained with 4′,6-diamidino-2-phenylindole (DAPI), mounted and examined under a Leica universal fluorescent microscope. The images were merged using the MetaMorph Image Analysis Software.
# [5] = test system: H460 large cell carcinoma cells; experiment: as above; format: cell-based, human; settings: 10 μg/mL FITC-labeled peptide, fixed H460 cells
# Method: as §2
# [6] = test system: H1993 cells; experiment: Uptake of targeting peptide-conjugated LSRB; format: cell-based, human; settings: peptide-conjugated liposomal SRB, time course, 37° C.
# Method: (§3) H460 and H1993 cells were grown on a 24-well plate to 90% confluency, and 20, 10, 5, 2.5, 1.25, 0.625 μM HSP1, 2, 4-liposomal sulforhodamine B (LSRB) or LSRB in complete culture medium was added. The cells were incubated at 37° C., at the following time periods: 10, 30 min, 1, 2, 4, 8, 16 and 24 hours. At the indicated time point, cells were washed with PBS, and non-internalized LSRB on the cell surface was removed by adding 0.1 M Glycine, pH 2.8 for 10 min. Cells were then lysed with 200 μl 1% Triton X-100. Uptake of LD at low concentration in H1993 cells was performed using same protocol. For extraction of SRB or doxorubicin, 300 μl IPA (0.75 N HCl in isopropanol) was added to the lysate and shaken for 30 min. After the lysate was centrifuged at 12,000 rpm for 5 min, the amount of uptakes were determined by measuring Excitation/Emission wavelengths of fluorescence at 520/570 nm for SRB and 485/590 nm for doxorubicin using, a spectrofluorometer (SPECTRAMAX® M5, Molecular Devices). The concentration of SRB and doxambicin were calculated by interpolation using a standard curve.
# [7] = test system: H460 cells; experiment: Uptake of targeting peptide-conjugated LSRB; format: cell-based, human; settings: for uptake of LSRB: peptide-conjugated LSRB at high concentration / higher doses; for liposome internalization compared to non-targeting LSRB: peptide-conjugated liposomal SRB, time course, 37° C.
# Method: as §3
# [8] = test system: H460 cells; experiment: Endocytosis assay (confocal microscopy); format: cell-based, human; settings: peptide-conjugated LSRB; 4° C. vs 37° C.
# Method: H460 cells were incubated with HSP1, HSP2, HSP4-LSRB or LSRB for 10 min at 4° C. and 37° C. After being washed with PBS, the cells were fixed by 4% paraformaldehyde, blocked by 1% BSA, and then stained with WGA-ALEXA FLUOR® […] and DAPI for cell membrane and nucleus. All fluorescence images were obtained by confocal microscopy.
# [9] = test system: H460 cells; experiment: In vitro cytotoxicity assay of targeting peptide-conjugated LD (MTT); format: cell-based, human; settings: for decrease of the half maximal inhibitory concentration (IC50) compared to LD: peptide-conjugated LD at optimal peptide ratio, H460 cells; for reduction in IC50 in vitro: peptide-mediated DDS, summary statement
# Method: H460 cells were seeded in 96-well plates (5000 cells/well) in complete culture media and were incubated overnight. Next day, cells were treated with varying concentration (0˜100 μM) of HSP1-LD, HSP2-LD, HSP4-LD or LD at 37° C. for 24 hours; After removal of the excess drug, the cells were washed once with PBS and continued to incubate with fresh culture medium for 48 h at 37° C. The cell viability was measured by adding 50 μl of MTT (Thiazolyl Blue Tetrazolium Bromide; Sigma-Aldrich) to each well of the plate. After 3.5 hours MTT incubation, 150 μl of Dimethyl sulfoxide (DMSO; Mallinckrodt Baker) was added to each well for 10 min, and the absorbance was determined with microplate reader (SPECTRAMAX® M5, Molecular Devices) at 540 nm.
# [10] = test system: H460 human lung large cell carcinoma xenografts; experiment: Ligand-targeted therapy, lung large cell carcinoma xenograft model; format: in vivo, SCID mice; settings: large tumor ~500 mm^3; 2 mg/kg/injection i.v. twice a week
# Method: Female SCID mice 4-6 weeks of age were injected subcutaneously in the dorsolateral flank with human NSCLC cells. Mice with size-matched tumors (approximately 75 mm^3 for small tumor; 300 or 500 mm^3 for large tumor) were then randomly assigned to different treatment groups, and were injected intravenously with liposomal doxorubicin (LD), liposomal vinorelbine (LV), targeting peptide (HSP1, HSP2 or HSP4)-conjugated LD or LV, free doxorubicin (FD), free vinorelbine (FV) or equivalent volumes of saline. The dosages of drugs and administration time courses were described in figure legends depend on different experiment design. Mouse body weights and tumor sizes were measured twice a week. Tumor volumes were calculated according to this formula: length×(width)^2×0.52. Animal care was carried out in accordance with guidelines of Academia Sinica, Taipei, Taiwan. The protocol was approved by the Committee on the Ethics of Animal Experiments of Academia Sinica.
# [11] = test system: A549 adenocarcinoma orthotopic model; experiment: Combination therapy in orthotopic lung cancer model; format: in vivo, SCID mice; settings: HSP4-mediated combinatorial liposomes
# Method: SCID mice (6-week-old) were anesthetized with isofloruance mixed with oxygen and placed in the right decubitus position. The skin overlying the left chest wall in the mid-axillary line was prepared with alcohol, and the underlying, chest wall and intercostal spaces were visualized. […] After tumor injection, the mice were turned to left decubitus position and observed for 45 to 60 min until fully recovered.
# Luciferase-expressing cancer cells were imaged and quantified using IVIS200 system (Xenogen Corporation, Alameda, Calif.) at 10 minutes after i.p. injection of LUCWERIN™ (Caliper Life Sciences) before drug administration each time.
half-life in plasma compared to liposomal formulations [1],Compound,surface binding of FITC-labeled peptide (FACS) [2],surface binding of FITC-labeled peptide (FACS) [3],binding of FITC-labeled peptide in cell IFA [4],binding of FITC-labeled peptide in cell IFA [5],liposome internalization compared to non-targeting LSRB [6],uptake of LSRB [7],liposome internalization compared to non-targeting LSRB [7],binding versus internalization compared to HSP2 and HSP4 [8],decrease of the half maximal inhibitory concentration (IC50) compared to LD [9] [fold],reduction in IC50 in vitro [9],therapeutic efficacy of LD [10],adverse effect (body weight loss) [11],intracellular delivery of LSRB ([7]; peptide-conjugated LSRB at low LSRB concentrations)
much shorter half-life in plasma,"COc1cccc2c1C(=O)c1c(O)c3c(c(O)c1C2=O)C[C@@](O)(C(=O)CO)C[C@@H]3O[C@H]1C[C@H](N)[C@H](O)[C@H](C)O1 [FD, doxorubicin]",,,,,,,,,,,,,
,GAMHLPWHMGTL (also: FITC label) [HSP1],prominent binding,not to human normal bronchial epithelial cell,can bind to a major group,can bind to a major group,enhanced liposome internalization,better uptake ability,enhanced liposome internalization,stronger ability at binding than internalization,12.5,about 10 fold,significantly improved therapeutic efficacy,,
,KATEEQLKTVME (control peptide) [reference compound],,,cannot,cannot,,,,,,,,,
,"NNPWREMMYIEI [HSP4, NNPWREMMYIEI]",,,,,,,,,,,,decreasing body weight loss,
,NPWEEQGYRYSM (also: FITC label) [HSP2],prominent binding,not to human normal bronchial epithelial cell,can bind to a major group,can bind to a major group,enhanced liposome internalization,no difference from non-targeting LSRB,enhanced liposome internalization,,13,about 10 fold,significantly improved therapeutic efficacy,,prominent intracellular delivery
